# Source: PubChem BioAssay AID2060883 (Molecular Pharmacology Branch, DTP, NCI, 2025)
# pIC50: −log10 of the molar value.
# Test system: 843782-103-R-J1-PDC complex spheroid viability
# Assay: Anticancer human tumor 843782-103-R-J1-PDC patient-derived lung adenocarcinoma cell line growth inhibition [RAS]
# Conditions: for pIC50: curve of first compound; for viability, T/C: stronger effect = lower value
# Method in brief: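 Agents were tested in combination matrices in half-log decrements from a top concentration at or near clinical Cmax (10 microM if undetermined). Targets were multi-cell spheroids of tumour lines plus HUVEC and MSC stromal cells.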
# 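Note: viability read after seven days of compound exposure.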
structure (smiles),measurement,setting,value
CC1(C)CCC(Nc2ncc(C(F)(F)F)c(-c3c[nH]c4c(P(C)(C)=O)c(C#N)ccc34)n2)CN1 (centres undefined) + CCn1c(-c2cc(N3CCN(C)CC3)cnc2C(C)OC)c2c3cc(ccc31)-c1csc(n1)CC(NC(=O)C1CC1C)C(=O)N1CCCC(N1)C(=O)OCC(C)(C)C2,pIC50,second compound 0.000949 µM,8.27
same,pIC50,second compound 0.003 µM,8.65
same,pIC50,second compound 0.00949 µM,> 9.02
same,pIC50,second compound 0.03 µM,> 9.02
same,pIC50,second compound 0.0949 µM,> 9.02
same,pIC50,second compound 0.3 µM,> 9.02
same,"viability, T/C","second compound 0.000949 µM, first compound 0.000949 µM",72.5%
same,"viability, T/C","second compound 0.000949 µM, first compound 0.003 µM",68.5%
same,"viability, T/C","second compound 0.000949 µM, first compound 0.00949 µM",32.6%
same,"viability, T/C","second compound 0.000949 µM, first compound 0.03 µM",14.2%
same,"viability, T/C","second compound 0.000949 µM, first compound 0.0949 µM",12%
same,"viability, T/C","second compound 0.000949 µM, first compound 0.3 µM",11.8%
same,"viability, T/C","second compound 0.003 µM, first compound 0.000949 µM",60.5%
same,"viability, T/C","second compound 0.003 µM, first compound 0.003 µM",46.6%
same,"viability, T/C","second compound 0.003 µM, first compound 0.00949 µM",22.8%
same,"viability, T/C","second compound 0.003 µM, first compound 0.03 µM",14.1%
same,"viability, T/C","second compound 0.003 µM, first compound 0.0949 µM",11.1%
same,"viability, T/C","second compound 0.003 µM, first compound 0.3 µM",11%
same,"viability, T/C","second compound 0.00949 µM, first compound 0.000949 µM",39.2%
same,"viability, T/C","second compound 0.00949 µM, first compound 0.003 µM",29.3%
same,"viability, T/C","second compound 0.00949 µM, first compound 0.00949 µM",18.7%
same,"viability, T/C","second compound 0.00949 µM, first compound 0.03 µM",10.5%
same,"viability, T/C","second compound 0.00949 µM, first compound 0.0949 µM",12.1%
same,"viability, T/C","second compound 0.00949 µM, first compound 0.3 µM",10.9%
same,"viability, T/C","second compound 0.03 µM, first compound 0.000949 µM",20.1%
same,"viability, T/C","second compound 0.03 µM, first compound 0.003 µM",21.7%
same,"viability, T/C","second compound 0.03 µM, first compound 0.00949 µM",14.5%
same,"viability, T/C","second compound 0.03 µM, first compound 0.03 µM",12.2%
same,"viability, T/C","second compound 0.03 µM, first compound 0.0949 µM",10.5%
same,"viability, T/C","second compound 0.03 µM, first compound 0.3 µM",9.54%
same,"viability, T/C","second compound 0.0949 µM, first compound 0.000949 µM",18.7%
same,"viability, T/C","second compound 0.0949 µM, first compound 0.003 µM",18.2%
same,"viability, T/C","second compound 0.0949 µM, first compound 0.00949 µM",14.1%
same,"viability, T/C","second compound 0.0949 µM, first compound 0.03 µM",12.2%
same,"viability, T/C","second compound 0.0949 µM, first compound 0.0949 µM",10.3%
same,"viability, T/C","second compound 0.0949 µM, first compound 0.3 µM",10.3%
same,"viability, T/C","second compound 0.3 µM, first compound 0.000949 µM",14.5%
same,"viability, T/C","second compound 0.3 µM, first compound 0.003 µM",14.3%
same,"viability, T/C","second compound 0.3 µM, first compound 0.00949 µM",11.9%
same,"viability, T/C","second compound 0.3 µM, first compound 0.03 µM",11.7%
same,"viability, T/C","second compound 0.3 µM, first compound 0.0949 µM",11.5%
same,"viability, T/C","second compound 0.3 µM, first compound 0.3 µM",10.1%
CC1(O)CCCC1n1c(=O)c(C(F)F)cc2cnc(NC3CCN(S(C)(=O)=O)CC3)nc21 (centres undefined) + CCn1c(-c2cc(N3CCN(C)CC3)cnc2C(C)OC)c2c3cc(ccc31)-c1csc(n1)CC(NC(=O)C1CC1C)C(=O)N1CCCC(N1)C(=O)OCC(C)(C)C2,pIC50,second compound 0.000949 µM,6.91
same,pIC50,second compound 0.003 µM,7.28
same,pIC50,second compound 0.00949 µM,> 7.50
same,pIC50,second compound 0.03 µM,> 7.50
same,pIC50,second compound 0.0949 µM,> 7.50
same,pIC50,second compound 0.3 µM,> 7.50
same,"viability, T/C","second compound 0.000949 µM, first compound 0.0316 µM",68.6%
same,"viability, T/C","second compound 0.000949 µM, first compound 0.1 µM",57%
same,"viability, T/C","second compound 0.000949 µM, first compound 0.316 µM",18.5%
same,"viability, T/C","second compound 0.000949 µM, first compound 1 µM",14.9%
same,"viability, T/C","second compound 0.000949 µM, first compound 3.16 µM",11.1%
same,"viability, T/C","second compound 0.000949 µM, first compound 10 µM",2.8%
same,"viability, T/C","second compound 0.003 µM, first compound 0.0316 µM",58.1%
same,"viability, T/C","second compound 0.003 µM, first compound 0.1 µM",42.5%
same,"viability, T/C","second compound 0.003 µM, first compound 0.316 µM",16.6%
same,"viability, T/C","second compound 0.003 µM, first compound 1 µM",17.5%
same,"viability, T/C","second compound 0.003 µM, first compound 3.16 µM",13.2%
same,"viability, T/C","second compound 0.003 µM, first compound 10 µM",2.6%
same,"viability, T/C","second compound 0.00949 µM, first compound 0.0316 µM",37.4%
same,"viability, T/C","second compound 0.00949 µM, first compound 0.1 µM",24.2%
same,"viability, T/C","second compound 0.00949 µM, first compound 0.316 µM",14.6%
same,"viability, T/C","second compound 0.00949 µM, first compound 1 µM",15.8%
same,"viability, T/C","second compound 0.00949 µM, first compound 3.16 µM",13.1%
same,"viability, T/C","second compound 0.00949 µM, first compound 10 µM",3.41%
same,"viability, T/C","second compound 0.03 µM, first compound 0.0316 µM",18.4%
same,"viability, T/C","second compound 0.03 µM, first compound 0.1 µM",15.7%
same,"viability, T/C","second compound 0.03 µM, first compound 0.316 µM",13%
same,"viability, T/C","second compound 0.03 µM, first compound 1 µM",12.7%
same,"viability, T/C","second compound 0.03 µM, first compound 3.16 µM",13.5%
same,"viability, T/C","second compound 0.03 µM, first compound 10 µM",2.9%
same,"viability, T/C","second compound 0.0949 µM, first compound 0.0316 µM",15.8%
same,"viability, T/C","second compound 0.0949 µM, first compound 0.1 µM",13.8%
same,"viability, T/C","second compound 0.0949 µM, first compound 0.316 µM",10.8%
same,"viability, T/C","second compound 0.0949 µM, first compound 1 µM",11.4%
same,"viability, T/C","second compound 0.0949 µM, first compound 3.16 µM",12%
same,"viability, T/C","second compound 0.0949 µM, first compound 10 µM",3.5%
same,"viability, T/C","second compound 0.3 µM, first compound 0.0316 µM",14.1%
same,"viability, T/C","second compound 0.3 µM, first compound 0.1 µM",13.6%
same,"viability, T/C","second compound 0.3 µM, first compound 0.316 µM",9.45%
same,"viability, T/C","second compound 0.3 µM, first compound 1 µM",10%
same,"viability, T/C","second compound 0.3 µM, first compound 3.16 µM",9.83%
same,"viability, T/C","second compound 0.3 µM, first compound 10 µM",3.16%
